From patent publication US20250163074A1, “CDK Inhibitors And Their Use As Pharmaceuticals” (Prelude Therapeutics Incorporated, priority 2020, published 2025)
Read-outs that look alike come from different tables or passages of the source.

What was measured:
[1] = Brain-to-plasma ratio determination in Sprague-Dawley rats; assay type: in vivo; details: male Sprague-Dawley rats, four hours after a single oral dose (3, 4, 5, or 10 mg/kg); for Kp at 4 h: rat
Experimental: Example B: Brain-to-Plasma Ratio Determination in Sprague-Dawley Rats
The brain-to-plasma ratio (Kp) was determined in male Sprague-Dawley rats (7-9 weeks old) four hours after a single oral dose. Rats were acclimated and given free access to standard rodent chow and water throughout the entire study. Test articles were formulated as a solution at 0.3, 0.4, 0.5, or 1.0 mg/mL in a vehicle comprised of 10:15:75 (v:v:v) dimethylacetamide (DMA):Solutol HS15:water and delivered orally at a rate of 10 mL/kg to three rats to achieve final doses of 3, 4, 5, or 10 mg/kg, respectively. At 4 hours post-dose, blood samples were collected via jugular vein cannula into tubes containing K2EDTA as the anticoagulant and stored on ice. Blood samples were then centrifuged at 4° C. at 6000 rpm for 5 minutes, and the resulting plasma was placed into tubes and stored frozen at −80° C. until analysis. Whole brain samples were also collected at 4 hours post-dose. The weight of each brain was measured and recorded, and samples were immediately stored on dry ice. Brain samples were then transferred to storage at −80° C. until analysis.
Prior to analysis, brain samples were combined with water (4 mL/1 gram of brain) and homogenized. Prior to injection, plasma and brain homogenate samples and standards were prepared for analysis by precipitation with acetonitrile or 1:1 (v:v) methanol:acetonitrile. Samples were then thoroughly mixed, centrifuged at 4000 rpm for 15 minutes, and the resulting supernatant was transferred for analysis. Test article concentrations in plasma and brain homogenate were then determined by LC-MS/MS and quantified against calibration standards prepared to known concentrations in matched blank (analyte-free) biological matrix. The Kp was then determined by dividing the dilution-corrected brain concentration by the plasma concentration from each rat. A brain density of 1 gram/mL was assumed for all calculations.

[2] = molecular target: CDK6/Cyclin D1 (Homo sapiens (Human), UniProt Q00534); test: CDK6/CyclinD1 enzymatic activity assay (TR-FRET); assay type: biochemical; details: CDK6/Cyclin D1 1 nM, ATP 250 μM, read-out: CDK6_D1 IC50
Outline: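 Insect-cell-expressed CDK6/Cyclin D1 (1 nM) phosphorylated ULight-4E-BP1 (100 nM) with 250 μM ATP in HEPES pH 7.4 buffer. After 20 min compound preincubation, reactions were started with 10 mM MgCl2 and run 60 min at 37 °C. EDTA-quenched samples were read by TR-FRET with Eu-anti-P-4E-BP1; IC50 from 9-dose 4-parameter fits.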

[3] = test system: MCF7 adenocarcinoma cell line; test: Cell proliferation studies in MCF7 cells (ATP-Lite); assay type: cell-based; details: 10 days incubation, cell viability by ATP-Lite luminescence, read-out: PROLIFERATION_CTG_MCF7 IC50
Outline: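 MCF7 cells, seeded at 100 or 200 cells/well, were exposed for 10 days at 37 °C to a 9-point, 3-fold dilution series in quadruplicate, with media exchange and re-dosing on day 5. Viability was read by ATP-Lite luminescence, normalized to background and DMSO, and fitted for IC50.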

[4] = molecular target: CDK4/Cyclin D1 (Homo sapiens (Human), UniProt P11802); test: CDK4/CyclinD1 enzymatic activity assay (TR-FRET); assay type: biochemical; details: CDK4/CyclinD1 1 nM, ATP 2 mM, read-out: CDK4_D1 IC50
Outline: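 Insect-cell CDK4/Cyclin D1 (1 nM) with ULight-4E-BP1 (100 nM) and 2 mM ATP in HEPES pH 7.4 buffer, preincubated 20 min with compound (9-dose, 3-fold dilutions); 10 mM MgCl2 started the reaction, run 60 min at 37 °C. EDTA/Eu-anti-phospho-4E-BP1 TR-FRET detection; IC50 from 4-parameter Hill fit.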

Chain of CDK4/Cyclin D1 (P11802 whole entry): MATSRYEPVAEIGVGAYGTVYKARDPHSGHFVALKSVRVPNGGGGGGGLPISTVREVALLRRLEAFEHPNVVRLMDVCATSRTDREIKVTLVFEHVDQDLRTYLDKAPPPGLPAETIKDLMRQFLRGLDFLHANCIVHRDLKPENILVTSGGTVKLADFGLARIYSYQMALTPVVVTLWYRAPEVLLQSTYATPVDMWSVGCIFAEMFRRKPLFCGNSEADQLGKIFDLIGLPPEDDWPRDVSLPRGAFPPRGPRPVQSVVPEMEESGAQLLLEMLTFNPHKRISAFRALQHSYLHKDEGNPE
Chain of CDK4/Cyclin D1 (P24385 whole entry partner): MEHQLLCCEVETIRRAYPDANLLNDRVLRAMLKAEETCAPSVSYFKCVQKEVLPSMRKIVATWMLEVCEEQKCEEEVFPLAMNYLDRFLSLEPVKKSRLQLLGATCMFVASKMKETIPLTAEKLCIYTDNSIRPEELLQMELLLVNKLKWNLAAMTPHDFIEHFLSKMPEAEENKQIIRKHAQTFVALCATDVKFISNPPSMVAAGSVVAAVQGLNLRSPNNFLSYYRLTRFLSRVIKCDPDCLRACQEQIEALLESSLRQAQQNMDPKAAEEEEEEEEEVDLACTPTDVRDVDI
Chain of CDK6/Cyclin D1 (Q00534 whole entry): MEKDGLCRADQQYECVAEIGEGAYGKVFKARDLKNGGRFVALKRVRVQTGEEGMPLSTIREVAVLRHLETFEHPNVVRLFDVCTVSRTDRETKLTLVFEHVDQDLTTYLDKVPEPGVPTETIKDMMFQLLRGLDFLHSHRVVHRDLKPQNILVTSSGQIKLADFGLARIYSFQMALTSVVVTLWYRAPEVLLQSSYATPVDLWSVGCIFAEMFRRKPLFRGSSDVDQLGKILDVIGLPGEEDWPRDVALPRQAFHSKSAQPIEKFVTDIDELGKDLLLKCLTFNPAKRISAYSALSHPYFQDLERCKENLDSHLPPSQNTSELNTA
Chain of CDK6/Cyclin D1 (P24385 whole entry partner): as the sequence (P24385 whole entry partner) above

With `CN1CCC(c2ccc(Nc3ncc(F)c(-c4cc5c(s4)C4(CCCC4)CN(C)C5=O)n3)nc2)CC1` [Example 2, 2′-(5-Fluoro-2-((5-(1-methylpiperidin-4-yl)pyridin-2-yl)amino)pyrimidin-4-yl)-5′-methyl-5′,6′-dihydro-4′H-spiro[cyclopentane-1,7′-thieno[3,2-c]pyridin]-4′-one] the Kp at 4 h [1] was 1 to 3, the IC50 [2] was ≤ 20 nM and the IC50 ([3]; Homo sapiens, 240 h) was 20 to 200 nM. The IC50 [4] was ≤ 20 nM.
With `CCN1CCN(c2ccc(Nc3ncc(F)c(-c4cc5c(s4)C4(CCCC4)CN(C)C5=O)n3)nc2)CC1` [Example 3, 2′-(2-((5-(4-Ethylpiperazin-1-yl)pyridin-2-yl)amino)-5-fluoropyrimidin-4-yl)-5′-methyl-5′,6′-dihydro-4′H-spiro[cyclopentane-1,7′-thieno[3,2-c]pyridin]-4′-one] the Kp at 4 h [1] was ≥ 3, the IC50 [2] was ≤ 20 nM and the IC50 ([3]; Homo sapiens, 240 h) was 20 to 200 nM. The IC50 [4] was ≤ 20 nM.
`CCN1CC2(C1)CN(c1ccc(Nc3ncc(F)c(-c4cc5c(s4)C4(CCCCC4)CN(C)C5=O)n3)nc1)C2` [Example 4, 2′-(2-((5-(6-Ethyl-2,6-diazaspiro[3.3]heptan-2-yl)pyridin-2-yl)amino)-5-fluoropyrimidin-4-yl)-5′-methyl-5′,6′-dihydro-4′H-spiro[cyclohexane-1,7′-thieno[3,2-c]pyridin]-4′-one] gave a Kp at 4 h [1] of 1 to 3, an IC50 [2] of 20 to 200 nM and an IC50 ([3]; Homo sapiens, 240 h) of 20 to 200 nM. The IC50 [4] was ≤ 20 nM.
For `Cc1c(-c2nc(Nc3ccc(C4CCN(C)CC4)cn3)ncc2F)sc2c1C(=O)N(C)C21CC1` [Example 6, 2′-(5-Fluoro-2-((5-(1-methylpiperidin-4-yl)pyridin-2-yl)amino)pyrimidin-4-yl)-3′,5′-dimethylspiro[cyclopropane-1,6′-thieno[2,3-c]pyrrol]-4′(5′H)-one], the Kp at 4 h [1] was 1 to 3, the IC50 [2] was ≤ 20 nM and the IC50 ([3]; Homo sapiens, 240 h) was 20 to 200 nM. The IC50 [4] was ≤ 20 nM.
With `CCN1C(=O)c2c(sc(-c3nc(Nc4ccc(C5CCN(C)CC5)cn4)ncc3F)c2C)C12CC2` [Example 7, 5′-Ethyl-2′-(5-fluoro-2-((5-(1-methylpiperidin-4-yl)pyridin-2-yl)amino)pyrimidin-4-yl)-3′-methylspiro[cyclopropane-1,6′-thieno[2,3-c]pyrrol]-4′(5′H)-one] the Kp at 4 h [1] was 1 to 3, the IC50 [2] was ≤ 20 nM and the IC50 ([3]; Homo sapiens, 240 h) was 20 to 200 nM. For the same compound, the IC50 [4] was ≤ 20 nM.
With `CCN1CC2(C1)CN(c1ccc(Nc3ncc(F)c(-c4sc5c(c4C)C(=O)N(C)C54CC4)n3)nc1)C2` [Example 12, 2′-(2-((5-(6-Ethyl-2,6-diazaspiro[3.3]heptan-2-yl)pyridin-2-yl)amino)-5-fluoropyrimidin-4-yl)-3′,5′-dimethylspiro[cyclopropane-1,6′-thieno[2,3-c]pyrrol]-4′(5′H)-one] the Kp at 4 h [1] was < 1, the IC50 [2] was ≤ 20 nM and the IC50 ([3]; Homo sapiens, 240 h) was ≤ 20 nM. The IC50 [4] was ≤ 20 nM.
In the case of `Cc1c(-c2nc(Nc3ccc(C4CCN(C(C)C)C4)cn3)ncc2F)sc2c1C(=O)N(C)C21CC1` (stereo not drawn) [Example 16, 2′-(5-Fluoro-2-((5-(1-isopropylpyrrolidin-3-yl)pyridin-2-yl)amino)pyrimidin-4-yl)-3′,5′-dimethylspiro[cyclopropane-1,6′-thieno[2,3-c]pyrrol]-4′(5′H)-one], the Kp at 4 h [1] is reported as < 1, the IC50 [2] is reported as ≤ 20 nM and the IC50 ([3]; Homo sapiens, 240 h) is reported as 20 to 200 nM. The IC50 [4] was ≤ 20 nM.
With `CN1CCC(c2ccc(Nc3ncc(F)c(-c4cc5c(s4)C4(CCCC4)N(C)C5=O)n3)nc2)CC1` [Example 20, 2′-(5-Fluoro-2-((5-(1-methylpiperidin-4-yl)pyridin-2-yl)amino)pyrimidin-4-yl)-5′-methylspiro[cyclopentane-1,6′-thieno[2,3-c]pyrrol]-4′(5′H)-one] the Kp at 4 h [1] was ≥ 3, the IC50 [2] was ≤ 20 nM and the IC50 ([3]; Homo sapiens, 240 h) was ≤ 20 nM. For the same compound, the IC50 [4] was ≤ 20 nM.
In the case of `CCN1CC2(C1)CN(c1ccc(Nc3ncc(F)c(-c4cc5c(s4)C4(CCCC4)N(C)C5=O)n3)nc1)C2` [Example 24], the Kp [1] is reported as “++ (a “++” denotes 1.0 ≤ Kp < 3.0)”, the IC50 [2] is reported as ≤ 20 nM and the IC50 [3] is reported as 20 to 200 nM. For the same compound, the IC50 [4] was ≤ 20 nM.
For `Cc1c(-c2nc(Nc3ccc(C4CCN(C)CC4)cn3)ncc2F)sc2c1C(=O)N(C)C21CCCC1` [Example 25, 2′-(5-Fluoro-2-((5-(1-methylpiperidin-4-yl)pyridin-2-yl)amino)pyrimidin-4-yl)-3′,5′-dimethylspiro[cyclopentane-1,6′-thieno[2,3-c]pyrrol]-4′(5′H)-one], the Kp at 4 h [1] was 1 to 3, the IC50 [2] was ≤ 20 nM and the IC50 ([3]; Homo sapiens, 240 h) was ≤ 20 nM. The IC50 [4] was ≤ 20 nM.
With `Cc1c(-c2nc(Nc3ccc(C4CCN(C)CC4)cn3)ncc2F)sc2c1C(=O)N(C)CC21CC1` [Example 28] the Kp at 4 h [1] was ≥ 3, the IC50 [2] was ≤ 20 nM and the IC50 ([3]; Homo sapiens, 240 h) was 20 to 200 nM. For the same compound, the IC50 [4] was ≤ 20 nM.
For `CN1CCC(c2ccc(Nc3ncc(F)c(-c4cc5c(s4)C4(CC4)CN(C)C5=O)n3)nc2)CC1` [Example 29, 2′-(5-Fluoro-2-((5-(1-methyl-piperidin-4-yl)pyridin-2-yl)amino)pyrimidin-4-yl)-5′-methyl-5′,6′-dihydro-4′H-spiro[cyclo-propane-1,7′-thieno[3,2-c]pyridin]-4′-one], the Kp at 4 h [1] was 1 to 3, the IC50 [2] was 20 to 200 nM and the IC50 ([3]; Homo sapiens, 240 h) was 20 to 200 nM. The IC50 [4] was ≤ 20 nM.
For `Cc1c(-c2nc(Nc3ccc(N4CC5(CCN(C)C5)C4)cn3)ncc2F)sc2c1C(=O)N(C)CC21CC1` [Example 35], the Kp at 4 h [1] was 1 to 3, the IC50 [2] was ≤ 20 nM and the IC50 ([3]; Homo sapiens, 240 h) was ≤ 20 nM. For the same compound, the IC50 [4] was ≤ 20 nM.
In the case of `CCN1C[C@H]2CN(c3ccc(Nc4ncc(F)c(-c5sc6c(c5C)C(=O)N(C)CC65CC5)n4)nc3)C[C@@H]2C1` [Example 39, 2′-(2-((5-((3aS,6aS)-5-Ethylhexahydropyrrolo[3,4-c]pyrrol-2(1H)-yl)pyridin-2-yl)amino)-5-fluoropyrimidin-4-yl)-3′,5′-dimethyl-5′,6′-dihydro-4′H-spiro[cyclopropane-1,7′-thieno[3,2-c]pyridin]-4′-one], the Kp at 4 h [1] is reported as 1 to 3, the IC50 [2] is reported as ≤ 20 nM and the IC50 ([3]; Homo sapiens, 240 h) is reported as 20 to 200 nM. For the same compound, the IC50 [4] was ≤ 20 nM.
For `CCN1CC2(C1)CN(c1ccc(Nc3ncc(C)c(-c4cc5c(s4)C4(CC4)CN(C)C5=O)n3)nc1)C2` [Example 41, 2-[2-[[5-(6-Ethyl-2,6-diazaspiro[3.3]heptan-2-yl)pyridin-2-yl]amino]-5-methylpyrimidin-4-yl]-5-methylspiro[6H-thieno[3,2-c]pyridine-7,1′-cyclopropane]-4-one], the Kp at 4 h [1] was < 1, the IC50 [2] was ≤ 20 nM and the IC50 ([3]; Homo sapiens, 240 h) was ≤ 20 nM. The IC50 [4] was ≤ 20 nM.
With `CN1CCC(c2ccc(Nc3ncc(F)c(-c4cc5c(s4)C4(CCC4)CN(C)C5=O)n3)nc2)CC1` [Example 47, 2′-(5-Fluoro-2-((5-(1-methyl-piperidin-4-yl)pyridin-2-yl)amino)pyrimidin-4-yl)-5′-methyl-5′,6′-dihydro-4′H-spiro[cyclobutane-1,7′-thieno[3,2-c]pyridin]-4′-one] the Kp at 4 h [1] was 1 to 3, the IC50 [2] was 20 to 200 nM and the IC50 ([3]; Homo sapiens, 240 h) was 20 to 200 nM. The IC50 [4] was ≤ 20 nM.
With `Cc1c(-c2nc(Nc3ccc(C4CCN(C)CC4)cn3)ncc2F)sc2c1C(=O)N(C)CC21CCC1` [Example 48, 2′-(5-Fluoro-2-((5-(1-methyl-piperidin-4-yl)pyridin-2-yl)amino)pyrimidin-4-yl)-3′,5′-dimethyl-5′,6′-dihydro-4′H-spiro[cyclobutane-1,7′-thieno[3,2-c]pyridin]-4′-one] the Kp at 4 h [1] was ≥ 3, the IC50 [2] was ≤ 20 nM and the IC50 ([3]; Homo sapiens, 240 h) was 20 to 200 nM. For the same compound, the IC50 [4] was ≤ 20 nM.
For `CN1CCN(c2ccc(Nc3ncc(F)c(-c4cc5c(s4)C4(CCC4)CN(C)C5=O)n3)nc2)CC1` [Example 50, 2′-(5-Fluoro-2-((5-(4-methyl-piperazin-1-yl)pyridin-2-yl)amino)pyrimidin-4-yl)-5′-methyl-5′,6′-dihydro-4′H-spiro[cyclobutane-1,7′-thieno[3,2-c]pyridin]-4′-one], the Kp at 4 h [1] was ≥ 3, the IC50 [2] was ≤ 20 nM and the IC50 ([3]; Homo sapiens, 240 h) was 20 to 200 nM. For the same compound, the IC50 [4] was ≤ 20 nM.
